Source: patent publication US5626883A, “Ascorbic acid compositions providing enhanced human immune system activity” (priority 1994, dated 1997)

How the values were obtained:
K562 tumor target cells [1] = assay: NK cell cytotoxic activity (4-hr 51Cr-release assay) before and after oral administration to healthy subjects, Example 1; assay type: in vivo, human
Experimental: This example compares the effect of ascorbic acid and the formulation of the present invention on NK cell activity, NK cell population, and peripheral blood leukocyte (PBL) uptake.
(§1) Lymphocytes were prepared from fresh heparinized peripheral venous blood by Ficoll-Hypaque density gradient centrifugation (Litton Bionetics, Rockville, Md.). Cells were washed three times with Hanks' balanced salt solution (HBSS), and resuspended to a concentration of 10×10^6 cells/ml in a complete medium (CM), that consisted of RPMI-1640 supplemented with 10% fetal calf serum and 1% antibiotics (100 U penicillin and 100 μg/ml streptomycin) and within an hour of isolation cells were used for different assays.
(§2) Chromium-release Assay for measuring NK cell activity:
(§3) A standard 4-hr ^51 Cr-release assay was employed. Briefly, 1×10^4 ^51 Cr-labelled K562 tumor target cells in
(§4) 0.1 ml CM were added to different wells of a microtiter plate. Effector cells were then pipetted into quadruplicate wells to give effector: target (E:T) ratios of 6:1, 12:1, 25:1 and 50:1. After a 4-hr incubation at 37° C., the microtiter plates were centrifuged at 1400 rpm for 5 min and 0.1 ml of supernatant from each well was collected and counted in a gamma counter. The percentages of isotope released were calculated by the following formula: [formula]
(§5) Total release was measured by adding […] Triton X-100 to designated wells. Lytic units (LU) were calculated from effector titration curves. One LU was defined as the number of effector cells required to achieve 20% lysis.
In FIG. 1A the NK cell activity is represented in lytic units (LU) on the vertical axis with time being represented in hours on the horizontal axis.
In FIG. 1B, the hollow bars represent the subject's NK cell activity before administration of either ascorbic acid alone or the formulation of the present invention.

clinical [2] = details: human, in vivo, 60 mg/kg
Experimental: as §1

[3] = tested on: peripheral blood leukocyte (PBL); assay: clinical; details: human, in vivo, 0 min
Experimental: as §1

NK cell population = NK cell population and sub-populations by flow cytometry, Example 1; assay type: in vivo, human; details: 0 and 24 hours post treatment; Anti-CD56 and Anti-CD3
Experimental: NK cell subset enumeration was carried out in ascorbate-treated and non-treated cell populations. A single laser flow cytometer (Epics Profile: Coulter Epics, Inc., Hialeah, Fla.), which discriminates forward and right-angle light scatter, as well as two colors, was used with an appropriate software package (Quad Stat: Coulter). Mononuclear cell populations were determined by two-color direct immunofluorescence, by using a whole-blood staining technique with the appropriate monoclonal antibody and flow cytometry. […]
lymphocyte markers, bit maps were set on the lymphocyte population of the forward-angle light scatter versus a 90° light scatter histogram. The percentage of positively stained cells for each marker pair, as well as the percentage of doubly stained cells, was determined. Estimates of the absolute numbers of lymphocyte positive for the respective surface markers were determined by multiplying peripheral lymphocyte cell count by the percentage of cells positive for each surface marker.
Total NK cell population and its sub-populations were also examined in this example. The total NK cell population and its sub-populations were determined both post-treatment with ascorbic acid alone and post-treatmentwith the formulation of the present invention by flow cytometry, using Anti-CD56 and Anti-CD3 monoclonal antibodies, respectively.

K562 tumor target cells [4] = assay: NK cell activity with repeated administration every four hours, Example 2; assay type: in vivo, human; details: 15 mg/kg ascorbic acid or biologically equivalent amount every four hours, twenty-four hours
Experimental: as §2, §3, §4, §5

glutathione = details: 500 mg/day; cited from earlier work
[5] = tested on: skin tumors and estrogen-induced renal tumors; details: in vivo; cited from earlier work
[6] = tested on: breast and gastric cancer; details: cited from earlier work
clinical [7] = details: human, plasma, 60 mg/kg
Experimental: Twenty-two healthy subjects were randomly selected for this example. The subjects ranged in age from 20 to 24 years, with a mean of 22 years. The subjects had not ingested any medications for at least two weeks before participation in the study.
Clearance and the uptake of ascorbic acid was measured in the plasma and mononuclear cell, respectively.
Briefly described, 5×10^6 cells were suspended in 0.2 ml of PBS, sonicated for 30 seconds, and 1 ml of 5% trichloroacetic acid (TCA) was added. The mixture was centrifuged to remove the precipitates and the supernatant was used to measure the level of ascorbic acid. From the mixture, 1.2 ml of this supernatant or 0.5 ml plasma was mixed with 0.4 ml of Dinitrophenyl-hydrazine-Thiourea-Copper (DCT) reagent, incubated at 37° C. for 3 hours, then transferred to an ice-water bath for 10 minutes. Then 2 ml of cold 12M H2 SO4 was added and the mixture was kept at room temperature for 20 min.

O=C1O[C@H]([C@@H](O)CO)C(O)=C1O [ascorbic acid, 3-oxo-1-gulofuranolactone]
NK cell activity (K562 tumor target cells [1]; 60 mg/kg ascorbic acid, twenty-four hours post-administration, FIG. 1A): 90 LU
NK cell activity (K562 tumor target cells [1]; 60 mg/kg, forty-eight hours, FIG. 1A): declined to near pre-administration levels
NK cell activity change (K562 tumor target cells [1]; 60 mg/kg, one to two hours after administration, FIG. 1A): transitory decrease in NK cell activity
time of recovery of NK cell activity to pre-administration levels (K562 tumor target cells [1]; 60 mg/kg, post-administration, FIG. 1A): about four
period of inhibition of NK cell activity (K562 tumor target cells [1]; early transient phase, followed by enhancement): two to four
overall suppression of NK cell activity (summary) (K562 tumor target cells [1]; shortly after administration): transient suppression or inhibition of NK cell activity
suppression of NK cell activity (K562 tumor target cells [1]; zero to four hours post-administration, FIG. 1A): transient suppression of NK cell activity
concentration at 1 h (clinical [2]): 64 ng/mL
concentration at 2 h (clinical [2]): 101 ng/mL
concentration at 4 h (clinical [2]): 95 ng/mL
concentration at 8 h (clinical [2]): 79 ng/mL
concentration at 24 h (clinical [2]): 74 ng/mL
concentration at 48 h (clinical [2]): 49 ng/mL
mean (M±SD) uptake of ascorbic acid by 5×10^6 white blood cells [3]: 5.1 μg/dl
percentages of total NK cell population, or its sub-populations (NK cell population): no significant effect
NK cell activity (K562 tumor target cells [4]): repeated suppression of NK cell activity
plasma concentrations of glutathione (glutathione): increases plasma concentrations of glutathione
tumor regression [5]: causes regression of skin tumors and estrogen-induced renal tumors in vivo
antitumor activity [6]: demonstrates antitumor activity against breast and gastric cancer
concentration at 1 h (clinical [7]): ~42000 ng/mL
